Assay results from publication PMC7156724, “Potent BRD4 inhibitor suppresses cancer cell-macrophage interaction” (Nature Communications, 2020).
Several values for one entry are separate records, joined by “and”; a condition that tells them apart may be missing. Identical values can stand only once.

What was measured:
[1] = Metabolic stability assay, mouse liver microsomes; conditions: for Remaining in mouse liver microsomes (Sup Fig.6a): in % (unit assumed)
Protocol: (§1) 7. Metabolic stability assay. The metabolic profile of NHWD-870 was determined using mouse, rat, dog, monkey, and human liver microsomes using the protocols […]
(§2) No. Compound ID Exat Mass Stock Conc.
(§3) 1) 100 mM potassium phosphate buffer, PH7.4; 2) 10mM MgCI2
(§4) 1) Intermediate solution: Dilute 5 μL of compound or control from stock solution (10 mM) with 45 uL DMSO,then mixed with 450 μL 1:1 Methanol/Water (Conc.: 10 0 […]
(§5) 2) Working solution: Dilute 50 μL from intermediate solution with 450 μL 100 mM potassium phosphate buffer (Conc.: 10 μM, 4.5%MeOH)
(§6) (3) NADPH regenerating system (final Isocitric dehydrogenase conc.= 1 unit/mL at […]
(§7) 1) β-Nicotinamide adenine dinucleotide phosphate, Vendor: sigma Cat. No. N0505
(§8) 2) Isocitric acid, Vendor: Sigma Cat. No. I1252
(§9) 3) Isocitric dehydrogenase, Vendor: sigma Cat. No. I2002
(§10) (4) Liver microsome solution preparation (final concentration o f 0.5 mg protein/mL) […]
(§11) Cold ACN including 100 ng/mL Tolbutamide and 100 ng/mL Labetalol as internal […]
(§12) 1) Add 10 μL compound or control working solution/well to all plates (T0, T5, T10, T20, T30, T60, NCF60) except matrix blank.
(§13) 2) Dispense 680 μL/well microsome solution to 96-well plate as reserv oir according to […]
(§14) plate map. Then add 80 μL/well to every plate by Apricot, incubate the mixture of microsome solution and compound at 37℃ for about 10 min.
(§15) 3) Add 10 μL 100 mM potassium phosphate buffer/well to NCF60, incubate at 37℃, […]
(§16) 4) After pre-warming, dispense 90 μL/well NADPH regenerating system to 96-well plate as reservoir according to the plate map. Then add 10 μL/well to every plate by Apricot to start reaction.
(§17) 5) Incubate at 37℃, start timer 2.
(§18) 6) Add 300 (μL/well) stop solution (cold in 4℃, including 100 ng/mL Tolbutamide and 100 ng/mL Labetalol) to terminate the reaction.
(§19) 7) The sampling plates are shaked for approx 10 min.
(§20) 8) Samples are centrifuged at 4000 rpm for 20 min under 4℃.
(§21) 9) While centrifuging, load 8×new 96-well plate with 300 μL HPLC water, then transfer 100 μL supernatant, mixed for LC/MS/MS.
(§22) Use equation of first order kinetics to calculate t1/2 and Clin t(mic): […]
(§23) Equation of first order kinetics: […]

[2] = Metabolic stability assay, human liver microsomes; conditions: for Remaining in Human liver microsomes (Sup Fig.6e): in % (unit assumed)
Protocol: as §1, §2, §3, §4, §5, §6, §7, §8, §9, §10, §11, §12, §13, §14, §15, §16, §17, §18, §19, §20, §21, §22, §23

[3] = tested on: PI3K/AKT1 and ERK phosphorylation; assay: Western blot of p-PI3K, p-AKT1 and p-ERK in TAMs; assay type: cell-based, mouse
Protocol: Supplementary Figure 13. NHWD-870 inhibited CSF1/CSF1R signaling pathw ay to reduce TAM […]
TA M s ( 2 ×10^5 cells) (treated with or without 10 ng/ml CSF1 and 100 nM NHWD-870 for 48 h) were seeded into the 6-well bottom chamber, in the presence or absence of A2780 cells (pre-treated with or without 100 nM NHWD-870 for 48 h) seeded into the top chamber (transwell size: 0.4μm). Shown are schematics of the experiment and representative western blot analysis of the indicated proteins (a), and quantification of the relative levels of p-PI3K, p-AKT1 and p-ERK over their respective total protein (b). Data are presented as mean ± SEM from 3 independent experiments. p values were calculated using two-tailed, unpaired t tests. n.s, no significant; **, p<0.01; ***, p<0.001. Source data are provided as a Source Data file. […]
4. Protein extraction and w estern blot anal ysis. Freshly dissected unfixed tissue was homogenized in lysis buffer. The lysates were centrifuged at 13,000g for 10 minutes at 4°C. Supernatants were collected and determined with a Bradford Protein Assay kit (Bio-Rad, Hercules, CA). The cell lysates were subjected to SDS-PAGE followed by immunoblotting (Immobilon P; Millipore, Milford, MA) with specific antibodies followed by detection using an enhanced chemilumine scence kit (Amersham Life Science, Arlington Heights, IL). […]

[4] = mouse, liver microsomes, pH 7.4
[5] = human, liver microsomes, pH 7.4
[6] = A2780&NHWD-870, individual replicates
[7] = CSF1&NHWD-870, individual replicates

## Cc1nnn(C)c1-c1cnc2c3c4cnn(C)c4ccc3n([C@H](c3ccccc3)C3CCOCC3)c2c1 [NHWD-870]
[1]; mouse liver microsomes
  Remaining (T=60min): 36.2%
[1]; mouse liver microsomes, no cofactor
  Remaining (*NCF=60min): 70.1%
[1]; [4]
  CLint scaled at 1 µM: 139 mL/min/kg
  half-life at 1 µM: 39.4 min
[1]; mouse, microsomes, pH 7.4
  microsomal CLint at 1 µM: 35.2 µL/min/mg
[1]; time 0
  Remaining in mouse liver microsomes (Sup Fig.6a): 100
[1]; time 5
  Remaining in mouse liver microsomes (Sup Fig.6a): 95.208
[1]; time 10
  Remaining in mouse liver microsomes (Sup Fig.6a): 82.243
[1]; time 20
  Remaining in mouse liver microsomes (Sup Fig.6a): 62.59
[1]; time 30
  Remaining in mouse liver microsomes (Sup Fig.6a): 51.73
[1]; time 60
  Remaining in mouse liver microsomes (Sup Fig.6a): 36.198
[2]; human liver microsomes
  Remaining (T=60min): 23.6%
[2]; human liver microsomes, no cofactor
  Remaining (*NCF=60min): 74.4%
[2]; [5]
  CLint scaled at 1 µM: 45.3 mL/min/kg
  half-life at 1 µM: 27.6 min
[2]; human, microsomes, pH 7.4
  microsomal CLint at 1 µM: 50.3 µL/min/mg
[2]; mouse, rat, dog, monkey, human, liver microsomes, pH 7.4
  half-life at 1 µM: 21 to 39 min
[2]; time 0
  Remaining in Human liver microsomes (Sup Fig.6e): 100
[2]; time 5
  Remaining in Human liver microsomes (Sup Fig.6e): 96.274
[2]; time 10
  Remaining in Human liver microsomes (Sup Fig.6e): 76.421
[2]; time 20
  Remaining in Human liver microsomes (Sup Fig.6e): 52.125
[2]; time 30
  Remaining in Human liver microsomes (Sup Fig.6e): 39.904
[2]; time 60
  Remaining in Human liver microsomes (Sup Fig.6e): 23.628
[3]; [6]
  p-AKT1 (Sup Fig.13b quantification): 2.1 and 1.52 and 1.57
  p-ERK (Sup Fig.13b quantification): 1.19 and 1.05 and 0.87
  p-PI3K (Sup Fig.13b quantification): 2.9 and 1.18 and 1.69
[3]; [7]
  p-AKT1 (Sup Fig.13b quantification): 6.88 and 4.52 and 4.09
  p-ERK (Sup Fig.13b quantification): 3.28 and 4.19 and 4.11
  p-PI3K (Sup Fig.13b quantification): 2.92 and 3.3 and 3.78
[3]; direct treatment of TAMs, 100 nM, 48 h
  CSF1-induced PI3K/AKT1 and ERK phosphorylation in TAMs: not affected
[3]; pre-treatment of A2780 cells, 100 nM, 48 h
  PI3K/AKT1 and ERK activation in TAMs co-cultured with A2780 cells: blocked
